Experimental data published in PMC10053770, “Assessment of the Pharmacokinetics, Disposition, and Duration of Action of the Tumour-Targeting Peptide CEND-1” (International Journal of Molecular Sciences, 2023).

How the values were obtained:
[1] = Single-dose intravenous pharmacokinetics in rats; format: in vivo, rat; settings: for Vd: read-out: V; for clearance: read-out: Cl_obs (converted)
Experimental: (§1) The in vivo pharmacokinetic profile of CEND-1 after a single dose was evaluated in four non-GLP animal studies including Sprague-Dawley rats, Beagle dogs, cynomolgus monkeys and BALB/c mice following the intravenous injection of CEND-1 at various doses ([…]; 1.5, 4.5 and 13.5 mg/kg for mice) (Table 1). Blood samples were collected for pharmacokinetic evaluations pre-dose and at 1, 5, 10, 15 and 30 min, and 1, 2 and 6 h post-dose in rats, dogs and monkeys, and 3, 10, 30 and 90 min, and 4 and 8 h post-dose in mice.
(§2) Plasma CEND-1 was quantified by validated liquid chromatography coupled with a tandem mass spectrometry (LC/MS/MS) assay. Tolbutamide or leuprorelin acetate were used as internal standards. AB Sciex Triple Quad API 5500 (Sciex, Framingham, MA, USA), operated in the positive electrospray ionization (ESI) mode, was used to monitor the precursor to production ion transitions of m/z 495.4→69.9.
(§3) No formal sample size calculation was performed. Samples of 2–12 animals and 31 pancreatic cancer patients were considered acceptable to perform initial pharmacokinetic evaluations. The concentrations of CEND-1 were used to calculate PK parameters by employing a non-compartmental analysis (Phoenix^TM WinNonlin, version 6.1). The linear log trapezoidal algorithm, with a weighting of 1/Y*Y was used for parameter calculations. Mean PK parameters were calculated from individual animals in each treatment group. Concentrations below the LLOQ (if any) were excluded for the calculation of PK parameters. The mean values of PK parameters were calculated using Microsoft Excel version 2010.

[2] = Detailed clinical and cage-side observations in pre-clinical species; format: in vivo, mice, rats, dogs and monkeys; settings: any of the pre-clinical species tested, single IV dose
[3] = Single-dose intravenous pharmacokinetics in mice; format: in vivo, mouse; settings: for clearance: read-out: Cl_obs (converted); for Vd: read-out: V
Experimental: (§4) The in vivo pharmacokinetic profile of CEND-1 after a single dose was evaluated in four non-GLP animal studies including Sprague-Dawley rats, Beagle dogs, cynomolgus monkeys and BALB/c mice following the intravenous injection of CEND-1 at various doses (1, 5 and 50 mg/kg for rats, dogs and monkeys; 1.5, 4.5 and 13.5 mg/kg for mice) (Table 1). Blood samples were collected for pharmacokinetic evaluations pre-dose and at 1, 5, 10, 15 and 30 min, and 1, 2 and 6 h post-dose in rats, dogs and monkeys, and 3, 10, 30 and 90 min, and 4 and 8 h post-dose in mice.
as §2, §3

[4] = design: method as in PMID 35803294; settings: phase I trial, monotherapy and in combination with chemotherapy drugs; cited from earlier work
[5] = Single-dose intravenous pharmacokinetics in cynomolgus monkeys; format: in vivo; settings: cynomolgus monkey; for clearance: read-out: Cl_obs (converted); for Vd: read-out: V
Experimental: as §4, §2, §3

[6] = Single-dose intravenous pharmacokinetics in dogs; format: in vivo, dog; settings: for clearance: read-out: Cl_obs (converted); for Vd: read-out: V
Experimental: as §1, §2, §3

[7] = female, Sprague-Dawley rat, F, n=6, 1 mg/kg single IV, plasma LC/MS/MS, non-compartmental, one time point per animal
[8] = female, Sprague-Dawley rat, F, n=6, 5 mg/kg single IV, plasma LC/MS/MS, non-compartmental, one time point per animal
[9] = female, Sprague-Dawley rat, F, n=6, 75 mg/kg single IV, plasma LC/MS/MS, non-compartmental, one time point per animal
[10] = female, Sprague-Dawley rat, F, n=6, single IV, plasma LC/MS/MS, non-compartmental, one time point per animal
[11] = male, Sprague-Dawley rat, M, n=6, 1 mg/kg single IV, plasma LC/MS/MS, non-compartmental, one time point per animal
[12] = male, Sprague-Dawley rat, M, n=6, 5 mg/kg single IV, plasma LC/MS/MS, non-compartmental, one time point per animal
[13] = male, Sprague-Dawley rat, M, n=6, 75 mg/kg single IV, plasma LC/MS/MS, non-compartmental, one time point per animal
[14] = male, Sprague-Dawley rat, M, n=6, single IV, plasma LC/MS/MS, non-compartmental, one time point per animal
[15] = male, BALB/c mouse, M, n=3, 1.5 mg/kg single IV, plasma LC/MS/MS, non-compartmental, one time point per animal
[16] = male, BALB/c mouse, M, n=3, 4.5 mg/kg single IV, plasma LC/MS/MS, non-compartmental, one time point per animal
[17] = male, BALB/c mouse, M, n=3, 13.5 mg/kg single IV, plasma LC/MS/MS, non-compartmental, one time point per animal
[18] = male, M, n=3, 5 mg/kg single IV, plasma LC/MS/MS, non-compartmental, mean (SD)
[19] = male, M, n=3, 50 mg/kg single IV, plasma LC/MS/MS, non-compartmental, mean (SD)
[20] = Beagle dog, F, n=3, 5 mg/kg single IV, plasma LC/MS/MS, non-compartmental, mean (SD)
[21] = Beagle dog, F, n=5, 75 mg/kg single IV, plasma LC/MS/MS, non-compartmental, mean (SD)
[22] = female, Beagle dog, F, n=3, 1 mg/kg single IV, plasma LC/MS/MS, non-compartmental, mean (SD)
[23] = female, Beagle dog, F, n=5, 75 mg/kg single IV, plasma LC/MS/MS, non-compartmental, mean (SD)
[24] = male, Beagle dog, M, n=3, 1 mg/kg single IV, plasma LC/MS/MS, non-compartmental, mean (SD)
[25] = male, Beagle dog, M, n=3, 5 mg/kg single IV, plasma LC/MS/MS, non-compartmental, mean (SD)
[26] = male, Beagle dog, M, n=5, 75 mg/kg single IV, plasma LC/MS/MS, non-compartmental, mean (SD)

CC(=O)N[C@H]1CSSC[C@@H](C(N)=O)NC(=O)[C@H](CC(=O)O)NC(=O)[C@@H]2CCCN2C(=O)CNC(=O)[C@H](CCCCN)NC(=O)[C@H](CC(=O)O)NC(=O)CNC(=O)[C@H](CCCNC(=N)N)NC1=O [CEND-1]
Cl_obs ([1]; Sprague-Dawley rat, F, n=6, 1 mg/kg single IV, plasma LC/MS/MS, non-compartmental, one time point per animal): 9.37 mL/min/kg
half-life ([1]; Sprague-Dawley, rat, plasma, rats, single intravenous dose, read-out: average half-life): ~30 min
AUC(0-inf) [1, 7]: 1750 ng·h/mL
C0 [1, 7]: 3980 ng/mL
Vd [1, 7]: 0.201 L/kg
half-life ([1]; female, Sprague-Dawley rat, F, n=6, 1 mg/kg single IV, plasma LC/MS/MS, non-compartmental, one time point per animal, read-out: t1/2 (converted)): 14.9 min
AUC(0-inf) [1, 8]: 9750 ng·h/mL
C0 [1, 8]: 28400 ng/mL
clearance [1, 8]: 8.55 mL/min/kg
Vd [1, 8]: 0.323 L/kg
half-life ([1]; female, Sprague-Dawley rat, F, n=6, 5 mg/kg single IV, plasma LC/MS/MS, non-compartmental, one time point per animal, read-out: t1/2 (converted)): 26.2 min
AUC(0-inf) [1, 9]: 166000 ng·h/mL
Vd [1, 9]: 0.254 L/kg
half-life ([1]; female, Sprague-Dawley rat, F, n=6, 75 mg/kg single IV, plasma LC/MS/MS, non-compartmental, one time point per animal, read-out: t1/2 (converted)): 23.5 min
C0 [1, 10]: 436000 ng/mL
clearance [1, 10]: 7.52 mL/min/kg
AUC(0-inf) [1, 11]: 1770 ng·h/mL
C0 [1, 11]: 4230 ng/mL
clearance [1, 11]: 9.3 mL/min/kg
Vd [1, 11]: 0.64 L/kg
half-life ([1]; male, Sprague-Dawley rat, M, n=6, 1 mg/kg single IV, plasma LC/MS/MS, non-compartmental, one time point per animal, read-out: t1/2 (converted)): 48.3 min
AUC(0-inf) [1, 12]: 9060 ng·h/mL
C0 [1, 12]: 24300 ng/mL
clearance [1, 12]: 9.2 mL/min/kg
Vd [1, 12]: 0.366 L/kg
half-life ([1]; male, Sprague-Dawley rat, M, n=6, 5 mg/kg single IV, plasma LC/MS/MS, non-compartmental, one time point per animal, read-out: t1/2 (converted)): 27.6 min
AUC(0-inf) [1, 13]: 215000 ng·h/mL
Vd [1, 13]: 0.171 L/kg
half-life ([1]; male, Sprague-Dawley rat, M, n=6, 75 mg/kg single IV, plasma LC/MS/MS, non-compartmental, one time point per animal, read-out: t1/2 (converted)): 20.5 min
C0 [1, 14]: 469000 ng/mL
clearance [1, 14]: 5.8 mL/min/kg
detailed clinical observations and cage-side observations [2]: no test-article-related abnormalities
half-life ([3]; BALB/c, mouse, plasma, iv, mice, single intravenous dose, read-out: average plasma half-life): ~25 min
C0 ([3]; BALB/c, plasma, iv, mouse, dose level of 4–5 mg/kg, read-out: Cmax (C0)): ~40000 ng/mL
half-life ([3]; male, BALB/c, mouse, plasma, iv, 1.5 mg/kg, BALB/c mouse, M, n=3, 1.5 mg/kg single IV, plasma LC/MS/MS, non-compartmental, one time point per animal, read-out: t1/2 (converted)): 18.4 min
half-life ([3]; male, BALB/c, mouse, plasma, iv, 4.5 mg/kg, BALB/c mouse, M, n=3, 4.5 mg/kg single IV, plasma LC/MS/MS, non-compartmental, one time point per animal, read-out: t1/2 (converted)): 20.6 min
half-life ([3]; male, BALB/c, mouse, plasma, iv, 13.5 mg/kg, BALB/c mouse, M, n=3, 13.5 mg/kg single IV, plasma LC/MS/MS, non-compartmental, one time point per animal, read-out: t1/2 (converted)): 32.8 min
AUC(0-inf) [3, 15]: 1480 ng·h/mL
C0 ([3]; male, BALB/c mouse, M, n=3, 1.5 mg/kg single IV, plasma LC/MS/MS, non-compartmental, one time point per animal, read-out: C0): 10300 ng/mL
clearance [3, 15]: 16.9 mL/min/kg
Vd [3, 15]: 0.449 L/kg
AUC(0-inf) [3, 16]: 3700 ng·h/mL
C0 ([3]; male, BALB/c mouse, M, n=3, 4.5 mg/kg single IV, plasma LC/MS/MS, non-compartmental, one time point per animal, read-out: C0): 40300 ng/mL
clearance [3, 16]: 20.1 mL/min/kg
Vd [3, 16]: 0.599 L/kg
AUC(0-inf) [3, 17]: 10600 ng·h/mL
C0 ([3]; male, BALB/c mouse, M, n=3, 13.5 mg/kg single IV, plasma LC/MS/MS, non-compartmental, one time point per animal, read-out: C0): 68400 ng/mL
clearance [3, 17]: 21.3 mL/min/kg
Vd [3, 17]: 1.01 L/kg
safety profile [4]: acceptable safety profile
half-life ([5]; plasma, male cynomolgus monkeys, IV 5 and 50 mg/kg, read-out: average half-life): ~55 min
AUC(0-inf) [5, 18]: 28200 ng·h/mL
C0 [5, 18]: 55100 ng/mL
clearance [5, 18]: 2.98 mL/min/kg
Vd [5, 18]: 0.204 L/kg
half-life ([5]; male, M, n=3, 5 mg/kg single IV, plasma LC/MS/MS, non-compartmental, mean (SD), read-out: t1/2 (converted)): 53.3 min
AUC(0-inf) [5, 19]: 421000 ng·h/mL
C0 [5, 19]: 602000 ng/mL
clearance [5, 19]: 2.97 mL/min/kg
Vd [5, 19]: 0.162 L/kg
half-life ([5]; male, M, n=3, 50 mg/kg single IV, plasma LC/MS/MS, non-compartmental, mean (SD), read-out: t1/2 (converted)): 57.4 min
t1/2 ([6]; Beagle dog, F, n=3, 1 mg/kg single IV, plasma LC/MS/MS, non-compartmental, mean (SD)): 0.668 (0.0312) h
AUC(0-inf) [6, 20]: 20,443 (2530) h*ng/mL
Cl_obs [6, 20]: 247 (32.9) mL/hr/kg
V [6, 20]: 230 (14.6) mL/kg
t1/2 [6, 20]: 0.648 (0.0486) h
AUC(0-inf) [6, 21]: 323,936 (25,283) h*ng/mL
t1/2 [6, 21]: 0.620 (0.0439) h
half-life ([6]; Beagle, dog, plasma, dogs, single intravenous dose, read-out: average half-life): ~40 min
C0 [6, 22]: 4780 ng/mL
AUC(0-inf) ([6]; female, Beagle dog, F, n=3, 1 mg/kg single IV, plasma LC/MS/MS, non-compartmental, mean (SD), read-out: AUC0-inf): 3950 ng·h/mL
clearance [6, 22]: 4.25 mL/min/kg
Vd [6, 22]: 0.253 L/kg
C0 ([6]; female, Beagle dog, F, n=3, 5 mg/kg single IV, plasma LC/MS/MS, non-compartmental, mean (SD)): 25100 ng/mL
C0 [6, 23]: 476000 ng/mL
clearance [6, 23]: 3.88 mL/min/kg
Vd [6, 23]: 0.208 L/kg
C0 [6, 24]: 6010 ng/mL
AUC(0-inf) ([6]; male, Beagle dog, M, n=3, 1 mg/kg single IV, plasma LC/MS/MS, non-compartmental, mean (SD), read-out: AUC0-inf): 4030 ng·h/mL
clearance [6, 24]: 4.22 mL/min/kg
Vd [6, 24]: 0.241 L/kg
half-life ([6]; male, Beagle dog, M, n=3, 1 mg/kg single IV, plasma LC/MS/MS, non-compartmental, mean (SD), read-out: t1/2 (converted)): 39.9 min
C0 [6, 25]: 30200 ng/mL
AUC(0-inf) ([6]; male, Beagle dog, M, n=3, 5 mg/kg single IV, plasma LC/MS/MS, non-compartmental, mean (SD), read-out: AUC0-inf): 20600 ng·h/mL
clearance [6, 25]: 4.05 mL/min/kg
Vd [6, 25]: 0.23 L/kg
half-life ([6]; male, Beagle dog, M, n=3, 5 mg/kg single IV, plasma LC/MS/MS, non-compartmental, mean (SD), read-out: t1/2 (converted)): 39.3 min
C0 [6, 26]: 461000 ng/mL
AUC(0-inf) ([6]; male, Beagle dog, M, n=5, 75 mg/kg single IV, plasma LC/MS/MS, non-compartmental, mean (SD), read-out: AUC0-inf): 327000 ng·h/mL
clearance [6, 26]: 3.83 mL/min/kg
Vd [6, 26]: 0.204 L/kg
half-life ([6]; male, Beagle dog, M, n=5, 75 mg/kg single IV, plasma LC/MS/MS, non-compartmental, mean (SD), read-out: t1/2 (converted)): 36.9 min
